Measurements taken from the OPERA property sets (Mansouri et al. 2018).

Conditions: not given

| Compound | boiling point [°C] | melting point [°C] | log10 vapour pressure (mmHg) | log10 Koc (L/kg) | ready biodegradability | log10 Henry constant (atm·m³/mol) | log10 Koa |
| --- | --- | --- | --- | --- | --- | --- | --- |
| CCOc1ccc(I)cc1 | 250 | 29 |  |  |  |  |  |
| CCC1(C(C)C)C(=O)NC(=O)NC1=O |  | 203 |  |  |  |  |  |
| O=P(O)(O)CCP(=O)(O)O |  | 218 |  |  |  |  |  |
| c1ccc([Se][Se]c2ccccc2)cc1 |  | 63.5 |  |  |  |  |  |
| Fc1ccccc1Cl | 138 | -43 |  |  |  |  |  |
| Cc1ccc([N+](=O)[O-])cc1C | 251 | 30.5 | -2.44 |  |  |  |  |
| CCC(C)=C(C)C(C)=O | 158 |  |  |  |  |  |  |
| Cc1ccc2c(c1[N+](=O)[O-])C(=O)c1ccccc1C2=O |  | 270 |  |  |  |  |  |
| C=C(C)[C@@H]1CC[C@]2(C)CC[C@]3(C)[C@H](CC[C@@H]4[C@@]5(C)CC[C@H](O)C(C)(C)[C@@H]5CC[C@]43C)[C@@H]12 |  | 216 |  |  |  |  |  |
| O=S(=O)(F)c1ccccc1 | 204 |  |  |  |  |  |  |
| CC#CCCCCCCCC | 204 | -30.1 |  |  |  |  |  |
| Nc1cc(N)cc(C(=O)O)c1 |  | 228 |  |  |  |  |  |
| c1ccc(N=Nc2ccc(Nc3ccccc3)cc2)cc1 |  | 90 |  |  |  |  |  |
| O=CC(Br)(Br)Br | 174 | -57.5 | 0.183 |  |  |  |  |
| COc1ccc(C=O)c(OC)c1 | 290 | 72 |  |  |  |  |  |
| NC(Cc1cc(Br)c(O)c(Br)c1)C(=O)O (stereo in doubt) |  | 245 |  |  |  |  |  |
| Cc1cccc(C)c1NC(=O)CN(CC(=O)O)CC(=O)O |  | 202 |  |  |  |  |  |
| C[C@]12CC[C@@H](O)C[C@@H]1CC[C@@H]1[C@@H]2[C@H](O)C[C@]2(C)C(=O)CC[C@@H]12 |  | 235 |  |  |  |  |  |
| O=C[C@@H]1C[C@@H]2[C@@H]3[C@H]1[C@@]1(Cl)C(Cl)(Cl)[C@]3(Cl)[C@@]3(Cl)[C@@H]2[C@]31Cl |  |  | -6.7 |  |  |  |  |
| NNc1ccc(S(=O)(=O)O)cc1 |  | 286 |  |  |  |  |  |

| Compound | boiling point [°C] | melting point [°C] | log10 vapour pressure (mmHg) | log10 Koc (L/kg) | ready biodegradability | log10 Henry constant (atm·m³/mol) | log10 Koa |
| --- | --- | --- | --- | --- | --- | --- | --- |
| CCCC(=O)Oc1c(Br)cc(C#N)cc1Br |  |  |  | 3.03 |  |  |  |
| Cc1c(Br)c(Br)c(Br)c(Br)c1Br |  | 288 |  |  | not readily biodegradable |  |  |
| CN(C)C(=O)NC1CCCCCCC1 |  | 138 |  |  |  |  |  |
| CC1=CCC(C(C)(C)O)CC1 (stereo unspecified) | 219 | 37 | -1.37 |  | readily biodegradable | -5.65 |  |
| Clc1cc2c(oc3c(Cl)c(Cl)c(Cl)c(Cl)c32)c(Cl)c1Cl |  | 233 | -10.5 |  |  |  | 11.2 |
| Cc1cc(C)c(O)cc1C | 232 | 72 | -2.17 |  |  |  |  |
| C=Cc1ccccc1Br | 209 | -52.5 |  |  |  |  |  |
| NCCNCCNCCNCCN | 342 | -30 |  |  |  |  |  |
| CC(=O)CC(C)C(C)=O (stereo unspecified) | 196 |  |  |  |  |  |  |
| C=C(CC(C)(C)c1ccccc1)c1ccccc1 |  |  |  |  | not readily biodegradable |  |  |
| CC(=O)Nc1ccc2c(c1)Cc1cc([N+](=O)[O-])ccc1-2 |  | 262 |  |  |  |  |  |
| CCCCON=O | 78 |  |  |  |  |  |  |
| c1ccc2[nH]nnc2c1 | 350 | 100 |  | 1.69 |  |  |  |
| Fc1cc(F)c(F)cc1F | 90.2 | 4.5 | 1.75 |  |  |  |  |
| OCC(F)(F)C(F)(F)C(F)(F)C(F)(F)C(F)(F)C(F)(F)C(F)(F)C(F)F |  | 56 |  |  |  |  |  |
| CC(C)=CCC/C(C)=C/C=C/C(C)=C/C=C/C(C)=C/C=C/C=C(C)/C=C/C=C(C)/C=C/C1C(C)=CCCC1(C)C (stereo unspecified) |  | 140 |  |  |  |  |  |
| Cc1ccc[n+]([O-])c1 |  | 39 |  |  |  |  |  |
| CCC1(CC)C(=O)CCNC1=O |  | 104 |  |  |  |  |  |
| CCOC(=O)C1(c2ccccc2)CCN(CCc2ccc(N)cc2)CC1 |  | 83 |  |  |  |  |  |
| CCC(Br)(CC)C(N)=O |  | 67 |  |  |  |  |  |

| Compound | boiling point [°C] | melting point [°C] | log10 vapour pressure (mmHg) | log10 Koc (L/kg) | ready biodegradability | log10 Henry constant (atm·m³/mol) | log10 Koa |
| --- | --- | --- | --- | --- | --- | --- | --- |
| O=C(O)C(O)C(=O)O |  | 157 |  |  |  |  |  |
| C[Si]1(C)O[Si](C)(C)O[Si](C)(C)O1 | 134 | 64.5 | 0.548 |  |  |  |  |
| COc1c(OC)c2occc2c2oc(=O)ccc12 |  | 119 |  |  |  |  |  |
| C=CCNCCC | 112 |  |  |  |  |  |  |
| C=CCOC(C)=O | 104 |  | 1.43 |  |  |  |  |
| CC1NC(C)SC(C)S1 (stereo unspecified) |  | 46 |  |  |  |  |  |
| COCBr | 87 |  |  |  |  |  |  |
| COc1c(Br)cc(Br)cc1Br | 298 | 88 |  |  |  |  |  |
| COC(=O)C1=CCCN(C)C1 | 209 |  | -1.1 |  |  |  |  |
| COc1ccc(Cl)cc1 | 198 |  |  |  |  |  |  |
| CO[Si](OC)(OC)OC | 121 |  |  |  |  |  |  |
| Cc1ccc2nc3sc(=O)sc3nc2c1 |  | 170 | -6.7 | 3.36 |  |  |  |
| CC1(C)[C@H]2CC[C@]1(C)[C@H](O)C2 | 210 |  |  |  |  |  |  |
| CCc1c(Br)c(Br)c(Br)c(Br)c1Br |  | 138 |  | 4.92 | not readily biodegradable |  |  |
| CCCCOc1ccc(CC(=O)NO)cc1 |  | 154 |  |  |  |  |  |
| CCC(Br)Br | 134 |  |  |  |  |  |  |
| CC(C)c1ccc(Cl)cc1 | 198 | -12.3 |  |  |  |  |  |
| Clc1ccc(-c2cc(Cl)c(Cl)c(Cl)c2Cl)cc1Cl |  |  | -5.79 |  |  |  |  |

Same assay, conditions: fish

| Compound | log10 BCF | log10 biotransformation half-life (days) |
| --- | --- | --- |
| Nc1cc(S(=O)(=O)O)cc2cc(S(=O)(=O)[O][Na])cc(O)c12 | 0.46 |  |
| Cc1cc(C)c2c(c1)CC(C)(C)CC2 |  | 0.32 |
| CCN(CC)c1ccccc1 | 2.01 |  |
| Cc1c(Br)c(Br)c(Br)c(Br)c1Br | 2.43 | -0.13 |
| Clc1cc2c(oc3c(Cl)c(Cl)c(Cl)c(Cl)c32)c(Cl)c1Cl | 3.45 | 0.9 |
| CCc1c(Br)c(Br)c(Br)c(Br)c1Br | 2.52 | 0.02 |
| Clc1ccc(-c2cc(Cl)c(Cl)c(Cl)c2Cl)cc1Cl |  | 2.73 |
